Measurements: article PMC7699524, “Assessing the Intestinal Permeability and Anti-Inflammatory Potential of Sesquiterpene Lactones from Chicory” (Nutrients, 2020)

What was measured:
[1] = test system: Crz1 target genes PMR1 and GSC2; test: qRT-PCR of Crz1 target genes; type: cell-based, S. cerevisiae; conditions: 3.6 µM, 3 mM MnCl2, qPCR
Procedure: The qRT-PCR analyses were performed as previously described. Briefly, total RNA was extracted using the RNeasy Mini kit (QIAGEN). After cleaning, 4 μg of total RNA was used for reverse-transcription with SuperScript™ II Reverse Transcriptase (Invitrogen). The qRT-PCR was performed in a QuantStudio™ 5 (Applied Biosystems), using SensiFAST™ SYBR Lo-ROX Kit (Bioline) to evaluate expression of the PMR1 (‘5-[…]-3′; 5′-[…]-3′) (GeneID: 852709), and GSC2 (5′-[…]-3′; 5′-[…]-3′) (GeneID: 852920) genes. Both ACT1 (5′-GATCATTGCTCCTCCAGAA-3′; 5′-[…]-3′) and PDA1 (5′-[…]-3′; 5′-[…]-3′) were used as reference genes. The results were expressed as relative mRNA expression levels relative to activation condition (mRNA levels a.u.) of at least three independent biological replicates ± SEM.

Caco-2 cells = test: Permeability across Caco-2 monolayer (apical concentration by LC-MS); conditions: Caco-2 monolayer
Procedure: For intestinal permeability assessments of pure SLs, Caco-2 cells were seeded in 12 mm Transwell® inserts (polyester membrane, 0.4 μm pore size, Corning Costar Corp., NY, USA) at a density of 1.0 × 10^5 cell/cm^2. Cells were allowed to grow and differentiate to a confluent monolayer for 21 days postseeding with medium change three times per week. This mimics the apical and basolateral sides of the intestinal mucosa. Before the permeability assay, cells were washed with Hank’s balanced salt solution (HBSS) (Gibco, Life Technologies, Paisley, UK), and pure SLs in HBSS were added to the apical side for 4 h at the noncytotoxic concentration of 10 μM, while the basolateral well was replaced by HBSS. The fluorescent marker fluorescein (2.7 µM) was used as control, having been submitted to the same protocol as the SLs. Cells were submitted to an orbital shaking of 125 rpm (Ohaus, Shanghai, China), and samples from the basolateral side were collected after 15 min, 30 min, and then every hour until the end of the assay, and each time the retrieved volume was replaced by fresh HBSS to maintain sink conditions. After the 4 h assay, both apical and basolateral contents were collected, the cells were washed with PBS followed by culture medium, and culture medium was added to both compartments for 24 h to assess monolayer recovery. All samples were stored at −80 °C until LC-MS analysis.
Transepithelial electrical resistance (TEER) of all monolayers was monitored before and during experiments, and 24 h after the assay, to ensure their integrity using an EVOM™ voltmeter (WPI, Berlin, Germany). Before each experiment, TEER was measured and only monolayers with a TEER value higher than 500 Ω cm^2 were used. Experiments were done in triplicate.
Ultra High Performance Liquid Chromatography (UHPLC) separations were performed with a Dionex U3000 UHPLC coupled with a U3000 Photo Diode Array (PDA) and an LTQ-Orbitrap XL Mass Spectrometry (MS) system (Thermo-Fisher Ltd., Hemel Hempstead, UK). The MS and PDA systems were tuned and calibrated according to the manufacturers recommended procedures. The UHPLC was operated under Xcalibur and Chromeleon software (Thermo-Fisher Ltd. UK). A flow rate of 300 µL/min was applied, the column and guard (Synergi C18 Hydro-RP 80 Ä, 150 × 2.0 mm, 4 µm particle size; Phenomenex Ltd. U.K.) were maintained at a temperature of 30 °C. The solvent system compositions were, A: HPLC grade water (J.T. Baker, Scientific Chemical Supplies Ltd. UK), and solvent B: HPLC grade acetonitrile (J.T. Baker, Scientific Chemical Supplies Ltd. UK), both acidified with 0.1% MS grade formic acid (Ultima, Fisher Scientific, UK). A sample injection volume of 10 µL was employed in partial-loop mode. The gradient program was as follows: hold 2% B 0–2 min, 2–5% B 2–5 min, 5–45% B 5–25 min, 45–100% B 25–35 min, hold 100% B 35–38 min, 100–2% B 38–39 min, hold 2% B 39–44 min. Autosampler syringe and line washes were performed with 2:8 HPLC grade water: acetonitrile (J.T. Baker, Scientific Chemical Supplies Ltd., UK). The HPLC column eluent was first monitored by the U3000 PDA detector where spectra were collected in wavelength/absorbance mode from 200–600 nm. Additionally, three channel set points were employed, Channel A 210 nm, Channel B 260 nm, Channel C 320 nm. Spectra were collected with a filter bandwidth of 8 nm and wavelength step of 1 nm, the scan rate was 5 Hz.
The UHPLC eluent was next transferred to a Thermo LTQ-Orbitrap XL mass spectrometry system operated under Xcalibur (Thermo-Fisher Ltd. UK). For the first two minutes of analysis the UHPLC eluent was diverted to waste, from two to 39 min the eluent was directed to the MS detector, before being diverted back to waste between 39–44 min. Mass spectra were collected in centroid mode with a primary full scan event (m/z 100–1000) at a mass resolution of 30,000 (FWHM defined at m/z 400) within the Fourier Transform (FT) detector.

Crz1-GFP = test: Fluorescence microscopy of Crz1-GFP nuclear accumulation; type: cell-based, S. cerevisiae; conditions: 3.6 µM, then 3 mM MnCl2; YAA3 cells; MnCl2 only 55.6%
Procedure: YAA3 cells were treated with 3.6 µM of 11β,13-dihydrolactucin or 12.5 µM of FK506 for 90 min, followed by incubation with or without 3 mM MnCl2 for further 90 min. On the last 10 min of incubation, 10 µg/mL of Hoechst 33,342 (Sigma) nuclear dye were added. Cells were washed and resuspended in 5 µL of 1,4-Diazabicyclo[2.2.2]octane (DABCO, triethylenediamine) DABCO solution (200 mM DABCO in 75% (v/v) glycerol, 25% (v/v) PBS) (Sigma-Aldrich). The preparations were monitored for GFP fluorescence as previously described using a Zeiss Imager Z2 (Zeiss, Germany) fluorescence microscope. Photographs were taken with an Axiocam 506 mono (Zeiss). Three images were taken and analyzed for each sample, each one containing ≈ 600 individual cells. Images were analyzed using Fiji-ImageJ 1.53f (NIH, Bethesda, MD, USA).

calcineurin-Crz1 pathway = test: β-Galactosidase CDRE-lacZ yeast reporter assay of Crz1 activation; type: cell-based, S. cerevisiae; conditions: Saccharomyces cerevisiae
Procedure: Cultures at OD600= 0.5 ± 0.05 were diluted to OD600= 0.1 ± 0.01, transferred to 96-well microplate and challenged with the highest nontoxic concentration previously determined for each compound to investigate their putative inhibitory effect towards the calcineurin-responsive zinc finger (Crz1) activation. Measurements of β-galactosidase activity driven by the calcineurin-dependent response element (CDRE) regulated lacZ reporter gene allowed the quantitative assessment of the capacity of each compound to inhibit the activation of Crz1. FK506 (Cayman Chemicals, Ann Arbor, MI, USA) was used as a positive control at a final concentration of 12.5 μM. After 90 min of incubation with the respective compounds at 30 °C under orbital shaking, MnCl2 (Merck, Saint Louis, MO, USA) was added at a final concentration of 3 mM. After 90 min of incubation under the same conditions, OD600 of cultures were recorded, 10 μL of cell suspensions were transferred to a new 96-well plate followed by addition of 20 μL Y-PER cell lysis reagent (ThermoFisher Scientific), and the plates were incubated for 20 min at 37 °C without agitation. 240 μL of LacZ buffer (8.5 g/L Na2HPO4 (ROTH), 5.5 g/L NaH2PO4.H2O (Merck), 0.75 g/L KCl (Panreac), 0.246 g/L MgSO4.7H2O (Merck) containing […] o-nitrophenyl β-D-galactopyranoside (ONPG) (Sigma–Aldrich®—Poole, Dorset, UK) was added to each well, and plates were incubated at 30 °C for 2 h. The OD420 and OD550 were monitored using a Biotek Power Wave XS Microplate Spectrophotometer (Biotek® Instruments, Winooski, VT, USA). The results were expressed as Miller units (MU), applying the following equation, where V = volume of culture assayed in mL; t = reaction time in minutes: Miller unit = 1000 × (OD420 − 1.75 × OD550)/(t × V × OD600)(1)

For `CC1=C2C(=O)C=C(CO)C2C2OC(=O)C(C)C2C(O)C1` (stereo not drawn) [11β,13-dihydrolactucin], the “GSC2 mRNA expression” value [1] was “downregulated”, the “PMR1 mRNA expression” value [1] was “downregulated” and the “% of Decrease in SL Concentration in the Apical Side (t = 4h)” value (Caco-2 cells; 10 µM apical, 4 h vs t = 0 h) was 8.7%. The “SL conjugates with cysteine in the apical side after 4 h” value (Caco-2 cells; LC-MS) was “not detected”, the “Concentration of SL (Apical Side) t = 4 h” value (Caco-2 cells; SL added at 10 µM apical, after 4 h) was 8.3 ± 1.4 µM and the “Concentration of SL (Apical Side) t = 0 h” value (Caco-2 cells; SL added at 10 µM apical, before experiment) was 9.1 ± 1.3 µM. The “Percentage of cells with nuclear Crz1-GFP” value (Crz1-GFP) was 21%, the inhibition at 12.5 µM (calcineurin-Crz1 pathway; read-out: Calcineurin-Crz1 Inhibition (%) ± SD, 12.5 µM, MnCl2 3 mM activation, strain YAA5) was 43 ± 8% and the IC50 (calcineurin-Crz1 pathway; read-out: IC50 for Crz1 inhibition) was 2350 ± 1450 nM. For the same compound, the inhibition at 3.6 µM (calcineurin-Crz1 pathway; read-out: Inhibition of Crz1 activation (dose response assay), 3.6 µM, MnCl2 activation) was at most 54%.
